Parameters: species or system Yucatan pigs
Settings: pig, in vivo
Excerpt: Poly(lactic-co-glycolic acid) (PLGA) implants comprising bimatoprost were implanted into the eyes of 3 month old Yucatan pigs (6 pigs total). Prior to delivering the implant to either the sclera (fully intrascleral; “intrascleral arm”) or partially in the limbus (one end residing in the limbus, one end residing in the sclera; “limbal arm”), the pigs were placed under general anesthesia, and a lid speculum was inserted. Intraocular pressure was checked, and corneal thickness was checked in 4 quadrants, and centrally, using ultrasonic corneal pachymetry. The lid speculum was then removed.
In each of the 6 pigs, the right eye received one implant, and the left eye received 2 implants. In order to accomplish this, betadine drops were placed onto the left eyes of each pig and an eyelid speculum is inserted. A surgical operating microscope was positioned to visualize the implantation. Each eye was infraducted with a traction suture. A small conjunctival peritomy was created, and the sclera was marked with gentian violet-tipped calipers 2 mm posterior to the limbus. 10-0 nylon marking sutures were then placed 3-4 mm posterior to the limbus. A 27 G needle on a TB syringe was used to preform a tunnel for implantation toward the anterior chamber (group 1) or across the sclera (group 2). The implant was then deployed into the preformed tunnel, and the traction suture was released. Polymyxin-trimethoprim and tobramycin-dexamethasone drops were then placed in each eye, and the speculum was removed. The procedure was then repeated with two implants in each pig's […] eye.
At month 1, the pigs were examined, and one pig from each group was euthanized and the eyes were removed and placed in formalin for pathology. Aqueous samples from each of the 6 pigs were collected and analyzed for the presence of bimatoprost and Bimatoprost Acid (a metabolite of bimatoprost). At weeks 3, 10, and 20, the remaining pigs in each group were examined for redness, inflammation, eye rubbing, miosis, and squinting, as above.
At month 3, the remaining pigs were examined and aqueous samples collected (as above), and one of the remaining pigs from each group was euthanized (as above) for pathology.
The histopathology of the eyes is evaluated, as is the concentration of bimatoprost, and metabolites thereof, in the anterior chambers. The concentrations of bimatoprost and the bimatoprost acid metabolite in the anterior chamber of each pig's eyes are shown in FIGS. 24A-24D, at the time points described above. FIG. 24A and FIG. 24B show the concentrations of bimatoprost and the bimatoprost acid metabolite, respectively, for the three pigs (A1, A2, and A6) implanted with the intrascleral implant. […]

| Bimatoprost Acid concentration, limbal arm compared to intrascleral arm | presence of Bimatoprost Acid (metabolite of bimatoprost) in aqueous samples | presence of bimatoprost in the aqueous humor | SMILES | bimatoprost aqueous levels, limbal arm compared to intrascleral arm |
| --- | --- | --- | --- | --- |
| higher concentration in the limbal arm | detectable |  | O=C(O)CCC/C=C\C[C@@H]1[C@@H](/C=C/[C@@H](O)CCc2ccccc2)[C@H](O)C[C@@H]1O [Bimatoprost Acid] |  |
|  |  | detectable | CCNC(=O)CCC/C=C\C[C@@H]1[C@@H](/C=C/[C@@H](O)CCc2ccccc2)[C@H](O)C[C@@H]1O [bimatoprost] | both higher and more sustained aqueous levels in the limbal arm |
